Experimental findings from US8163805B2, “Small molecule antagonists of Bcl-2 family proteins” (The Regents of the University of Michigan, priority 2001, dated 2012) are described below.

In one data set the test system is UM-SCC-23. Briefly: 6-day MTT cell growth, UM-SCC-23. Format: cell-based, human. Conditions: read-out: IC50, inhibition of cell growth. On the procedure:
(§1) UM-SCC and human fibroblast cell lines were continuously exposed to varying concentrations of (−)-gossypol in 6-day MTT cell survival assays. Control wells contained media (DMEM) with vehicle alone. For each data point n=5.
(§2) Ten squamous cell carcinoma cell lines established at the University of Michigan (UM-SCC) and three human fibroblast lines were grown in Dulbecco's modified Eagle's medium (DMEM) supplemented with 10% fetal bovine serum. UM-SCC cell lines originated from the larynx (n=2; UM-SCC-12, -23), oral cavity/oropharynx (n=5; UM-SCC-1, -6, -14A, -74B, -81B), hypopharynx (n=1; UM-SCC-22A) and metastases from laryngeal cancers (n=2; UM-SCC-17B, -25). Human fibroblast cell lines originated from surgical specimens (fibroblast cell lines 2 and 3) and neonatal foreskin samples (fibroblast cell line 1).
(§3) Logarithmically growing cell lines were cultured, washed, counted, and plated at 5,000-15,000 cells per well in duplicate wells of 96-well plates and incubated in DMEM overnight. […] The MTT assay measures cell survival based on mitochondrial conversion of MTT from a soluble tetrazolium salt into an insoluble colored formazan precipitate, which is dissolved in dimethyl sulfoxide and quantitated by spectrophotometry. […] Percent absorbance relative to control was plotted as a linear function of drug concentration.

The subject of the next data set is UM-SCC-1. Briefly: 6-day MTT cell growth, UM-SCC-1. The data set is classed as cell-based, human. As to conditions: read-out: IC50, inhibition of cell growth. The protocol:
as §1, §2, §3

A further data set has as its system UM-SCC-6. Briefly: 6-day MTT cell growth, UM-SCC-6. The data set is classed as cell-based, human. As to conditions: read-out: IC50, inhibition of cell growth. On the procedure:
as §1, §2, §3

For the next data set, the system named is UM-SCC-22A. Briefly: 6-day MTT cell growth, UM-SCC-22A. Format: cell-based, human. As to conditions: read-out: IC50, inhibition of cell growth. On the procedure:
as §1, §2, §3

For a further data set, the system named is UM-SCC-12. Briefly: 6-day MTT cell growth, UM-SCC-12. Format: cell-based, human. As to conditions: read-out: IC50, inhibition of cell growth. The protocol: as §1, §2, §3
Another data set deals with UM-SCC-81B. Nature of the data set: 6-day MTT cell growth, UM-SCC-81B. Conditions: read-out: IC50, inhibition of cell growth. Format: cell-based, human. The protocol: as §1, §2, §3
For another data set, the system named is UM-SCC-17B. Nature of the data set: 6-day MTT cell growth, UM-SCC-17B. Conditions: read-out: IC50, inhibition of cell growth. The data set is classed as cell-based, human. On the procedure: as §1, §2, §3
A further data set concerns UM-SCC-14A. Briefly: 6-day MTT cell growth, UM-SCC-14A. As to conditions: read-out: IC50, inhibition of cell growth. The data set is classed as cell-based, human. On the procedure:
as §1, §2, §3

In another data set the test system is UM-SCC-74B. Nature of the data set: 6-day MTT cell growth, UM-SCC-74B. Format: cell-based, human. Conditions: read-out: IC50, inhibition of cell growth. The protocol: as §1, §2, §3
The test system of the next data set is UM-SCC-25. Briefly: 6-day MTT cell growth, UM-SCC-25. The data set is classed as cell-based, human. Conditions: read-out: IC50, inhibition of cell growth. On the procedure:
as §1, §2, §3

In data set [1] the test system is Fib-1 (fibroblast cell line 1). Nature of the data set: 6-day MTT cell growth, Fib-1. As to conditions: read-out: IC50, inhibition of cell growth. The data set is classed as cell-based, human. On the procedure:
as §1, §2, §3

The test system of data set [2] is Fib-2 (fibroblast cell line 2). Briefly: 6-day MTT cell growth, Fib-2. The data set is classed as cell-based, human. Conditions: read-out: IC50, inhibition of cell growth. The protocol:
as §1, §2, §3

Data set [3] deals with Fib-3 (fibroblast cell line 3). Briefly: 6-day MTT cell growth, Fib-3. Format: cell-based, human. Conditions: read-out: IC50, inhibition of cell growth. The protocol: as §1, §2, §3
The subject of data set [4] is PC-3 human prostate cancer bilateral xenografts. Nature of the data set: PC-3 xenograft, (−)-gossypol alone and with cisplatin (Table 11). The data set is classed as in vivo, NCr-nu nude mouse. As to conditions: mouse, in vivo.
Data set [5] has as its system colon cancer cell line HT-29 xenograft. As to conditions: Table 12; cisplatin 10 mg/kg i.v. twice q week; most mice, during the 2nd week of treatment; dose too high.
For data set [6], the system named is A549 non-small cell lung carcinoma xenograft. As to conditions: mouse, in vivo.
The test system is the same in data set [7]. Briefly: A549 non-small cell lung carcinoma xenograft, (−)-gossypol with paclitaxel. As to conditions: Table 13; paclitaxel 15 mg/kg i.p. twice q week for 3 weeks, alone.

pIC50: −log10 of the molar value. Where only a bound is given, the exact number is not on record here.

`N.N.[Cl][Pt][Cl]` [Cisplatin, cisplatin, reference compound]: the pIC50 with UM-SCC-23 is 4.60; in the data set with UM-SCC-1, 4.52; in the data set with UM-SCC-6, less than 4.30; with UM-SCC-22A, 5.30; in the data set with UM-SCC-12, 4.66; with UM-SCC-81B it was 4.66. Besides, the negative-log IC50 (pIC50) with UM-SCC-17B was 4.89; in the data set with UM-SCC-14A it was 4.54; in the data set on UM-SCC-74B, 4.92; in the data set on UM-SCC-25, 4.37; in [1], less than 4.30; in data set [2], less than 4.30. In [3], the pIC50 was less than 4.30. Moreover, the “time after CDDP treatment stopped when mice started to gain back the weight” value in [4] is “to gain back the weight 1-2 weeks”. The “mortality in cisplatin treated group” value in data set [5] is “mice were dead in the cisplatin”.
For the molecule `CC(=O)O[C@H]1C(=O)[C@@]2(C)[C@H]([C@H](OC(=O)c3ccccc3)[C@]3(O)C[C@H](OC(=O)[C@H](O)[C@@H](NC(=O)c4ccccc4)c4ccccc4)C(C)=C1C3(C)C)[C@]1(OC(C)=O)CO[C@@H]1C[C@@H]2O` [Paclitaxel], in [6], the weight loss entry is “There was no weight loss in mice”. Besides, in data set [7], the tumor growth inhibition entry is on record as “achieved about 67% tumor growth”.
